Data from PubChem BioAssay AID1963431 (Molecular Pharmacology Branch, DTP, NCI, 2024).
Each block holds one molecule with its values, some of them ahead of it.

System: Rh18 complex spheroid viability, percent test/control
Test: Anticancer human tumor Rh18 cell line growth inhibition [Asc];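 further: spheroids exposed to compound for 7 days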;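 on viability, T/C: 100% = DMSO vehicle control wells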
Conditions: for IC50: curve of first compound; for viability, T/C: stronger effect = lower value
Method in brief: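 Complex solid-tumor spheroids incorporating human endothelial and mesenchymal stem cells received single agents or combinations over half-log dilution ranges anchored to clinical Cmax.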

[1] = second compound 0.03 µM, first compound 0.0316 µM
[2] = second compound 0.03 µM, first compound 0.1 µM
[3] = second compound 0.03 µM, first compound 0.316 µM
[4] = second compound 0.03 µM, first compound 1 µM
[5] = second compound 0.03 µM, first compound 3.16 µM
[6] = second compound 0.03 µM, first compound 10 µM
[7] = second compound 0.0949 µM, first compound 0.0316 µM
[8] = second compound 0.0949 µM, first compound 0.1 µM
[9] = second compound 0.0949 µM, first compound 0.316 µM
[10] = second compound 0.0949 µM, first compound 1 µM
[11] = second compound 0.0949 µM, first compound 3.16 µM
[12] = second compound 0.0949 µM, first compound 10 µM
[13] = second compound 0.3 µM, first compound 0.0316 µM
[14] = second compound 0.3 µM, first compound 0.1 µM
[15] = second compound 0.3 µM, first compound 0.316 µM
[16] = second compound 0.3 µM, first compound 1 µM
[17] = second compound 0.3 µM, first compound 3.16 µM
[18] = second compound 0.3 µM, first compound 10 µM
[19] = second compound 0.949 µM, first compound 0.0316 µM
[20] = second compound 0.949 µM, first compound 0.1 µM
[21] = second compound 0.949 µM, first compound 0.316 µM
[22] = second compound 0.949 µM, first compound 1 µM
[23] = second compound 0.949 µM, first compound 3.16 µM
[24] = second compound 0.949 µM, first compound 10 µM
[25] = second compound 3 µM, first compound 0.0316 µM
[26] = second compound 3 µM, first compound 0.1 µM
[27] = second compound 3 µM, first compound 0.316 µM
[28] = second compound 3 µM, first compound 1 µM
[29] = second compound 3 µM, first compound 3.16 µM
[30] = second compound 3 µM, first compound 10 µM
[31] = second compound 0.03 µM, first compound 0.00316 µM
[32] = second compound 0.03 µM, first compound 0.01 µM
[33] = second compound 0.0949 µM, first compound 0.00316 µM
[34] = second compound 0.0949 µM, first compound 0.01 µM
[35] = second compound 0.3 µM, first compound 0.00316 µM
[36] = second compound 0.3 µM, first compound 0.01 µM
[37] = second compound 0.949 µM, first compound 0.00316 µM
[38] = second compound 0.949 µM, first compound 0.01 µM
[39] = second compound 3 µM, first compound 0.00316 µM
[40] = second compound 3 µM, first compound 0.01 µM

IC50 (second compound 0.03 µM): < 0.0316 µM | IC50 (second compound 0.0949 µM): < 0.0316 µM | IC50 (second compound 0.3 µM): < 0.0316 µM | IC50 (second compound 0.949 µM): < 0.0316 µM | IC50 (second compound 3 µM): < 0.0316 µM
Structure (SMILES): C#Cc1c(F)ccc2cc(O)cc(-c3ncc4c(N5CC6CCC(C5)N6)nc(OCC56CCCN5CC(F)C6)nc4c3F)c12 (stereo not given) + CCN1C(C(=O)NC23CCC(C(=O)O)(CC2)CC3)C(c2cccc(Cl)c2F)C2(C(=O)Nc3cc(Cl)ccc32)C12CCCCC2
viability, T/C [1]: 42.7% | viability, T/C [2]: 45.1% | viability, T/C [3]: 43.9% | viability, T/C [4]: 40.4% | viability, T/C [5]: 41.8% | viability, T/C [6]: 46.6% | viability, T/C [7]: 25.1% | viability, T/C [8]: 24.1% | viability, T/C [9]: 22.1% | viability, T/C [10]: 28.2% | viability, T/C [11]: 23.6% | viability, T/C [12]: 25.3% | viability, T/C [13]: 13.1% | viability, T/C [14]: 13.9% | viability, T/C [15]: 14.4% | viability, T/C [16]: 12.6% | viability, T/C [17]: 15.6% | viability, T/C [18]: 13.7% | viability, T/C [19]: 11.7% | viability, T/C [20]: 12.7% | viability, T/C [21]: 11% | viability, T/C [22]: 12.4% | viability, T/C [23]: 12.3% | viability, T/C [24]: 10.5% | viability, T/C [25]: 8.99% | viability, T/C [26]: 12.6% | viability, T/C [27]: 12.4% | viability, T/C [28]: 11.5% | viability, T/C [29]: 8.93% | viability, T/C [30]: 11.6%

IC50 (second compound 0.03 µM): < 0.0316 µM | IC50 (second compound 0.0949 µM): < 0.0316 µM | IC50 (second compound 0.3 µM): < 0.0316 µM | IC50 (second compound 0.949 µM): < 0.0316 µM | IC50 (second compound 3 µM): < 0.0316 µM
Structure (SMILES): C=C(F)C(=O)N1CCN(c2nc(OCC3CCCN3C)nc3c2CCN(c2cccc4cccc(Cl)c24)C3)CC1CC#N (stereo not given) + CCN1C(C(=O)NC23CCC(C(=O)O)(CC2)CC3)C(c2cccc(Cl)c2F)C2(C(=O)Nc3cc(Cl)ccc32)C12CCCCC2
viability, T/C [1]: 25.2% | viability, T/C [2]: 28.7% | viability, T/C [3]: 35.2% | viability, T/C [4]: 32.9% | viability, T/C [5]: 31.6% | viability, T/C [6]: 0.2% | viability, T/C [7]: 19.6% | viability, T/C [8]: 20.5% | viability, T/C [9]: 17.7% | viability, T/C [10]: 18.5% | viability, T/C [11]: 7.46% | viability, T/C [12]: 0.15% | viability, T/C [13]: 10.7% | viability, T/C [14]: 10.4% | viability, T/C [15]: 9.23% | viability, T/C [16]: 7.64% | viability, T/C [17]: 3.23% | viability, T/C [18]: 0.14% | viability, T/C [19]: 8.48% | viability, T/C [20]: 8.88% | viability, T/C [21]: 8.35% | viability, T/C [22]: 6.27% | viability, T/C [23]: 2.4% | viability, T/C [24]: 0.14% | viability, T/C [25]: 7.28% | viability, T/C [26]: 7.78% | viability, T/C [27]: 8.39% | viability, T/C [28]: 5.04% | viability, T/C [29]: 2.37% | viability, T/C [30]: 0.17%

IC50 (second compound 0.03 µM): < 0.0316 µM | IC50 (second compound 0.0949 µM): < 0.0316 µM | IC50 (second compound 0.3 µM): < 0.0316 µM | IC50 (second compound 0.949 µM): < 0.0316 µM | IC50 (second compound 3 µM): < 0.0316 µM
Structure (SMILES): C=CC(=O)N1CCN(c2nc(=O)n(-c3c(C)ccnc3C(C)C)c3nc(-c4c(O)cccc4F)c(F)cc23)C(C)C1 (stereo not given) + CCN1C(C(=O)NC23CCC(C(=O)O)(CC2)CC3)C(c2cccc(Cl)c2F)C2(C(=O)Nc3cc(Cl)ccc32)C12CCCCC2
viability, T/C [1]: 37.6% | viability, T/C [2]: 36.2% | viability, T/C [3]: 46.5% | viability, T/C [4]: 46.7% | viability, T/C [5]: 58.2% | viability, T/C [6]: 60.7% | viability, T/C [7]: 23.6% | viability, T/C [8]: 19.3% | viability, T/C [9]: 24.4% | viability, T/C [10]: 23.5% | viability, T/C [11]: 30.1% | viability, T/C [12]: 25.4% | viability, T/C [13]: 13.3% | viability, T/C [14]: 13.7% | viability, T/C [15]: 15% | viability, T/C [16]: 12.9% | viability, T/C [17]: 15.6% | viability, T/C [18]: 16% | viability, T/C [19]: 9.37% | viability, T/C [20]: 9.94% | viability, T/C [21]: 11.2% | viability, T/C [22]: 9.73% | viability, T/C [23]: 14.4% | viability, T/C [24]: 12.8% | viability, T/C [25]: 9.88% | viability, T/C [26]: 10% | viability, T/C [27]: 9.57% | viability, T/C [28]: 11.9% | viability, T/C [29]: 13.1% | viability, T/C [30]: 14.1%

IC50 (second compound 0.03 µM): < 0.00316 µM | IC50 (second compound 0.0949 µM): < 0.00316 µM | IC50 (second compound 0.3 µM): < 0.00316 µM | IC50 (second compound 0.949 µM): < 0.00316 µM | IC50 (second compound 3 µM): < 0.00316 µM
Structure (SMILES): CNC(C)C(=O)NC1CN(S(=O)(=O)c2cccc(S(=O)(=O)N3CCC4CCC(C(=O)NC(c5ccccc5)c5ccccc5)N4C(=O)C(NC(=O)C(C)NC)C3)c2)CCC2CCC(C(=O)NC(c3ccccc3)c3ccccc3)N2C1=O (stereo not given) + CCN1C(C(=O)NC23CCC(C(=O)O)(CC2)CC3)C(c2cccc(Cl)c2F)C2(C(=O)Nc3cc(Cl)ccc32)C12CCCCC2
viability, T/C [31]: 30.1% | viability, T/C [32]: 27.8% | viability, T/C [1]: 23.9% | viability, T/C [2]: 18.8% | viability, T/C [3]: 19.3% | viability, T/C [4]: 17.5% | viability, T/C [33]: 16.2% | viability, T/C [34]: 19.3% | viability, T/C [7]: 16.2% | viability, T/C [8]: 16.8% | viability, T/C [9]: 13.7% | viability, T/C [10]: 16.5% | viability, T/C [35]: 13.8% | viability, T/C [36]: 11% | viability, T/C [13]: 14.3% | viability, T/C [14]: 12.4% | viability, T/C [15]: 8.81% | viability, T/C [16]: 10.8% | viability, T/C [37]: 10.8% | viability, T/C [38]: 10% | viability, T/C [19]: 10.5% | viability, T/C [20]: 9.19% | viability, T/C [21]: 9.26% | viability, T/C [22]: 10.8% | viability, T/C [39]: 10.8% | viability, T/C [40]: 8.24% | viability, T/C [25]: 9.03% | viability, T/C [26]: 9.34% | viability, T/C [27]: 11.1% | viability, T/C [28]: 10.5%

IC50 (second compound 0.03 µM): < 0.00316 µM | IC50 (second compound 0.0949 µM): < 0.00316 µM | IC50 (second compound 0.3 µM): < 0.00316 µM | IC50 (second compound 0.949 µM): < 0.00316 µM | IC50 (second compound 3 µM): < 0.00316 µM
Structure (SMILES): COc1c(OCCCN2CCOCC2)ccc2c3n(c(=NC(=O)c4cnc(N)nc4)nc12)CCN3 + CCN1C(C(=O)NC23CCC(C(=O)O)(CC2)CC3)C(c2cccc(Cl)c2F)C2(C(=O)Nc3cc(Cl)ccc32)C12CCCCC2
viability, T/C [31]: 36.4% | viability, T/C [32]: 27.2% | viability, T/C [1]: 15.1% | viability, T/C [2]: 6.81% | viability, T/C [3]: 3.01% | viability, T/C [4]: 0.78% | viability, T/C [33]: 17.8% | viability, T/C [34]: 16.1% | viability, T/C [7]: 9.67% | viability, T/C [8]: 4.3% | viability, T/C [9]: 1.95% | viability, T/C [10]: 0.74% | viability, T/C [35]: 11% | viability, T/C [36]: 11% | viability, T/C [13]: 6.7% | viability, T/C [14]: 3.81% | viability, T/C [15]: 1.38% | viability, T/C [16]: 0.96% | viability, T/C [37]: 10.3% | viability, T/C [38]: 9.29% | viability, T/C [19]: 5.17% | viability, T/C [20]: 2.9% | viability, T/C [21]: 1.19% | viability, T/C [22]: 0.83% | viability, T/C [39]: 10.2% | viability, T/C [40]: 8.55% | viability, T/C [25]: 7.12% | viability, T/C [26]: 3.01% | viability, T/C [27]: 3.28% | viability, T/C [28]: 1.16%
